One data set deals with T1, chip-linked Cys-MB (Homo sapiens, UniProt P07988, DEL226-262).
T1 construct: made in house; host or cells: chemical solid-phase peptide synthesis (Fmoc), no expression host
The data set can be described thus: SPR binding to chip-linked Cys-MB. The note with it: HBS-EP buffer pH 7.4 with 0.005% P20, 37°C, 1 µg peptide/ml, mean; for koff / kon: 50 µl/min. As to the method:
(§1) The respective binding affinities of S-MB and MB, both to themselves (self-association) and to each other (cross-association), were measured with surface plasmon resonance (SPR) spectroscopy using a Biacore 3000 system (Biacore, Uppsala, Sweden), [59]. S-MB and MB, each with a cysteine added to its N-terminus, were chemically linked to a thiol Biacore chip (BR-1000-14, research grade, containing a carboxymethylated dextran matrix covalently attached to a gold film). Solutions of peptide in HBS-EP buffer (i.e., 10 mM Hepes, pH 7.4, 150 mM NaCl, 3 mM EDTA, 0.005% surfactant P20) were then flowed over the chip-linked peptide at a flow rate of 50 µl/min to determine binding affinity at 37°C. Assessment of peptide binding was determined with sensorgrams, in which the arbitrary response units (RU) were plotted as a function of time. Binding associated with control medium containing no peptide was subtracted from final affinity curves, and mean “on” and “off” rate constants (kon and koff) and the dissociation equilibrium constant (KD = koff/kon) were calculated using BIAevaluation Software Version 4.1 based on curve fitting form measurements at 1 µg peptide/ml buffer concentration. The sensor surface was regenerated using 10 mM HCl between sample injections.

A further data set addresses T2, chip-linked Cys-S-MB (Homo sapiens, UniProt P07988, DEL226-262).
T2 construct: made in house; host or cells: chemical solid-phase peptide synthesis (Fmoc), no expression host
T2 sequence (P07988 with tags, fused parts or gaps DEL226-262): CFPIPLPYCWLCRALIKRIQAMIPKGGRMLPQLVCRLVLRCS
Kind of data set: SPR binding to chip-linked Cys-S-MB. The note with it: HBS-EP buffer pH 7.4 with 0.005% P20, 37°C, 50 µl/min, 1 µg peptide/ml; mean. As to the method: as §1
(Surface plasmon resonance follows binding to a sensor surface in real time, without labels.)

The conditions of data set [1]: FTIR, methanol; ref [30]; cited from earlier work. An excerpt:
Although the “10 nsec” MD simulation of dimer S-MB provides a reasonable framework to account for our SDS-PAGE and SPR results (Figs. 8 and 10), it is worthwhile to consider other structural models by which the N-terminal insertion sequence may promote the self-association of S-MB. One possible alternative is that oligomeric S-MB may be due to the N-terminal sequence (residues 1-7) forming β-sheet. The N-terminal SP-B(1–9) (Fig. 2) was earlier proposed to act as a ‘biochemical Velcro®,’ facilitating in vivo either the aggregation of SP-B or the interactions of SP-B with SP-C [50]. In support ...

Data set [2] deals with T3, Cys-MB (Mini-B with a cysteine added to its N-terminus, chip-linked) (human).
T3 construct: cysteine added to the N-terminus to link the peptide to the thiol Biacore chip; surfactant protein B (SP-B), human, residues 8-25; numbers count on: the mature protein (79 residues); surfactant protein B (SP-B), human, residues 63-78; Immobilised on the SPR chip; also called chipped MB; N-terminal Cys-MB
T3 chain: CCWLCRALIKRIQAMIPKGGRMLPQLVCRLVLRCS
The data set can be described thus: SPR; Biacore 3000; Cys-MB or Cys-S-MB linked to a thiol chip; MB or S-MB at 1 µg peptide/ml in HBS-EP (10 mM Hepes, pH 7.4, 150 mM NaCl, 3 mM EDTA, 0.005% surfactant P20) flowed over at 50 µl/min, 37°C; constants from curve fitting at the one concentration. To be noted: both partners purified.

The target in data set [3] is T4, Cys-S-MB (Super Mini-B with a cysteine added to its N-terminus, chip-linked) (human).
T4 construct: cysteine added to the N-terminus to link the peptide to the thiol Biacore chip; surfactant protein B (SP-B), human, residues 1-25; numbers count on: the mature protein (79 residues); surfactant protein B (SP-B), human, residues 63-78; Immobilised on the SPR chip; also called chipped S-MB; N-terminal Cys-S-MB
T4 chain: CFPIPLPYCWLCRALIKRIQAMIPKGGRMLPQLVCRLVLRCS
The description is as above. The note with it: both partners purified.

Here are results for four molecules from article PMC2805716, “Critical Structural and Functional Roles for the N-Terminal Insertion Sequence in Surfactant Protein B Analogs” (PLoS ONE, 2010).

Where a SMILES comes first, the peptide text is derived from it. Bridges are numbered along the chain shown (N, C = ends). Where no end group is shown, it is not given here.

At chip-linked Cys-MB, `CC[C@H](C)[C@@H]1NC(=O)[C@H](CCCNC(=N)N)NC(=O)[C@H](CCCCN)NC(=O)[C@H]([C@@H](C)CC)NC(=O)[C@H](CC(C)C)NC(=O)[C@H](C)NC(=O)[C@H](CCCNC(=N)N)NC(=O)[C@@H]2CSSC[C@H](NC(=O)[C@H](C(C)C)NC(=O)[C@H](CC(C)C)NC(=O)[C@H](CCC(N)=O)NC(=O)[C@@H]3CCCN3C(=O)[C@H](CC(C)C)NC(=O)[C@H](CCSC)NC(=O)[C@H](CCCNC(=N)N)NC(=O)CNC(=O)CNC(=O)[C@H](CCCCN)NC(=O)[C@@H]3CCCN3C(=O)[C@H]([C@@H](C)CC)NC(=O)[C@H](CCSC)NC(=O)[C@H](C)NC(=O)[C@H](CCC(N)=O)NC1=O)C(=O)N[C@@H](CCCNC(=N)N)C(=O)N[C@@H](CC(C)C)C(=O)N[C@@H](C(C)C)C(=O)N[C@@H](CC(C)C)C(=O)N[C@@H](CCCNC(=N)N)C(=O)N[C@H](C(=O)N[C@@H](CO)C(=O)O)CSSC[C@H](N)C(=O)N[C@@H](Cc1c[nH]c3ccccc13)C(=O)N[C@@H](CC(C)C)C(=O)N2` [MB] (H-CWLCRALIKRIQAMIPKGGRMLPQLVCRLVLRCS-OH; disulfide 1-33, 4-27) showed an off-rate constant (koff) of 0.0168 s⁻¹ and a kon of 91900 M⁻¹ s⁻¹. The dissociation constant Kd at chip-linked Cys-MB (KD = koff/kon) was determined as 183 nM. At chip-linked Cys-S-MB, the koff was found to be 0.00806 s⁻¹ and the kon was 200000 M⁻¹ s⁻¹.
Consider “SP-B(1–9): N-terminal SP-B(1–9) peptide (FPIPLPYCW; Pulmonary surfactant-associated protein B; UniProt P07988 201-209, looked up, fragment)”, for which, in data set [1], the β-sheet content was 26.3% and the “β-sheet content in residues” value is listed as roughly 2.4 residues.
At chip-linked Cys-MB, “FPIPLPYCWLCRALIKRIQAMIPKGGRMLPQLVCRLVLRCS (disulfide 8-40, 11-34) [S-MB]” showed a koff of 0.00736 s⁻¹ and a kon of 141000 M⁻¹ s⁻¹. On chip-linked Cys-S-MB, this molecule returned an off-rate constant (koff) of 0.000901 s⁻¹ and an on-rate (kon) of 44700 M⁻¹ s⁻¹.

B1: Mini-B (peptide)
chain: CWLCRALIKRIQAMIPKGGRMLPQLVCRLVLRCS
notes: surfactant protein B (SP-B), human, residues 8-25 (N-terminal helix region); numbers count on: the mature protein (79 residues); surfactant protein B (SP-B), human, residues 63-78 (C-terminal helix region); Oxidised form with intramolecular disulfides Cys-8 to Cys-40 and Cys-11 to Cys-34 (S-MB numbering); also called MB; source: synthetic peptide (Fmoc solid phase, HPLC-purified, air-oxidised)
In data set [2], B1 registered a dissociation constant (Kd) of 183 nM, a dissociation rate constant (koff) of 0.0168 s⁻¹ and a kon of 91900 M⁻¹ s⁻¹. In data set [3], this molecule gave a Kd of 40.4 nM, an off-rate constant (koff) of 0.00806 s⁻¹ and an on-rate (kon) of 200000 M⁻¹ s⁻¹.

The term koff denotes the rate constant with which the complex falls apart. Low values mean slow dissociation, high ones fast dissociation. The term kon denotes the second-order rate constant of association. A low value points to slower complex formation. For orientation: Kd means the concentration at which binding is half-saturated. Low readings indicate tighter binding, high ones weaker binding.
